Results published in publication PMC12951568, “Identifying Structural Factors Governing the Photodynamic Activity of Phthalocyanines” (Journal of Medicinal Chemistry, 2026).
Values joined by “and” are separate entries in the source; they are usually repeats but may differ in a detail not shown here. Equal entries are not always repeated. Where two headings read alike, the source gives them in different places.

Columns and labels:
[1] = ref number not given, cited from earlier work; for ΦΔ of the reference standard: in DMF; for ΦΔ(EtOH): in EtOH
[2] = Absorption and fluorescence emission spectra in DMF; assay type: physicochemical; conditions: in DMF
Procedure: (§1) An absorption spectrum of 2.475 mL of solvent (water, DMF, or PBS) was taken (i.e., absorption spectrum of baseline); then, 25 μL of stock solution was added to reach the final concentration of 1 μM in the cuvette, and the absorption and emission spectra were taken. Baseline of the solvent was subtracted from the obtained absorption spectrum to get the final absorption spectrum of the sample.

[3] = Fluorescence quantum yield, comparative method; assay type: physicochemical; conditions: in DMF; ZnPc as reference
Procedure, shortened: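 ΦF determined by the comparative method against ZnPc (ΦF 0.32 in THF), using integrated emission area, absorbance at the excitation wavelength and solvent refractive index. Q-band absorbance kept below 0.05; estimated error ± 15%.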

[4] = Fluorescence lifetime in DMF; assay type: physicochemical
From the text: 1 Photophysical Data of Investigated Derivatives in DMF ^a | column: τF1/ns; τF2/ns

[5] = Log P, partition between n-octanol and PBS; assay type: physicochemical; conditions: partition coefficient between 1-octanol and PBS
Procedure, shortened: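 Sample from 100 μM stock added to equal volumes of n-octanol and PBS, vortexed 5 min at rt, centrifuged. Each layer diluted into DMF and emission spectra recorded; log P taken as log of octanol/PBS integrated fluorescence ratio, mean of triplicates.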

[6] = test system: MCF-7 (human breast adenocarcinoma); test: Photodynamic activity (phototoxicity, neutral red uptake) on MCF-7; assay type: cell-based; conditions: for EC50: 12 h incubation, Xe-lamp 15 min, λ > 570 nm, 11.2 J/cm^2, mean ± SD, t.w. = this work
[7] = test system: SK-MEL-28 (human skin melanoma); test: Photodynamic activity (phototoxicity, neutral red uptake) on SK-MEL-28; assay type: cell-based; conditions: 12 h incubation, Xe-lamp 15 min, λ > 570 nm, 11.2 J/cm^2, mean ± SD, t.w. = this work
[8] = test system: HeLa (human cervical carcinoma); conditions: 12 h incubation, Xe-lamp 15 min, λ > 570 nm, 11.2 J/cm^2; mean ± SD; determined previously under the same conditions at the same workplace and published; ref number not given; read-out: EC50 (nM) HeLa; cited from earlier work
[9] = Quantum yield of singlet oxygen production, comparative method with DPBF scavenger; assay type: physicochemical; conditions: in DMF, ZnPc as reference
Procedure, shortened: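 Dye added from 100 μM DMF stock (or DMF/water, water); irradiated under stirring with xenon lamp through water filter and OG530 cut-off (>523 nm). DPBF decay followed at 415 nm; ΦΔ from ln(A0/At) slopes versus reference, normalised to absorbed light summed over 523–850 nm; triplicate means, ±10% error.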

[10] = Aggregation / monomerization in aqueous media (spectra in water and PBS); assay type: physicochemical; conditions: 1 μM
Procedure: as §1

[11] = test system: HeLa (human cervical carcinoma); test: Photodynamic activity (phototoxicity, neutral red uptake) on HeLa; assay type: cell-based; conditions: for EC50: 12 h incubation, Xe-lamp 15 min, λ > 570 nm, 11.2 J/cm^2, mean ± SD, t.w. = this work
Procedure: Detailed in vitro studies involving subcellular localization and determination of the EC50 in three different cell lines (human cervical carcinoma–HeLa, human breast adenocarcinoma–MCF-7, and human skin melanoma–SK-MEL-28) were performed. A broadband light source (ozone-free 450 W Xe-lamp, Newport) equipped with the long-pass filter Schott OG570 was used (12.4 mW/cm^2, 15 min, 11.2 J/cm^2).
For the cytotoxicity experiments (phototoxicity), cells were seeded at 100 μL per well into 96-well plates (TPP, Switzerland) at a density of 7.5 × 10^3 (HeLa) or 1.0 × 10^4 (MCF-7 and SK-MEL-28) cells per well. Cells were left to grow for 24 h (until they reached confluency) in a controlled environment of a CO2 incubator (37 °C, 5% CO2 atmosphere, constant high humidity). Subsequently, studied compounds were added in a wide concentration range and incubated with the cells for 12 h. Cells were washed; fresh cell culture medium was added, and the cells were irradiated using a 450 W Xe lamp (Newport, USA). The lamp was equipped with a long pass filter (Newport OG570) and an 8 cm water filter (λ > 570 nm, 12.4 mW/cm^2, 15 min, 11.2 J/cm^2). Cellular viability was assessed after an additional 24 h by the neutral red (NR; Sigma, Merck, USA) uptake assay. At least three independent experiments, each in triplicate, were performed. The soluble NR was measured at λ = 540 nm using a Tecan Infinite 200 M plate reader (Tecan, Austria). The viability of each experimental group was expressed as the percentage of the untreated cells (100% viability) after subtraction of the signal from cells treated with a lethal dose of hydrogen peroxide (0% viability). […] EC50 values were calculated, and graphs were created by using GraphPad Prism 10.3.1 (Graph Pad software, USA).

[12] = test system: MCF-7 (human breast adenocarcinoma); design: method as in number not printed in Table 2; conditions: 12 h incubation, Xe-lamp 15 min, λ > 570 nm, 11.2 J/cm^2; mean ± SD; determined previously under the same conditions at the same workplace and published; ref number not given; cited from earlier work
[13] = in THF; ref number not given; cited from earlier work
[14] = biological target: bovine serum albumin (BSA) (Bos taurus, UniProt P02769); test: Interaction with bovine serum albumin (absorption and emission spectra in PBS); assay type: binding; conditions: 1 μM Pc in PBS, BSA 17.5, 35 and 100 μM
Chain of bovine serum albumin (BSA) (P02769 25-607): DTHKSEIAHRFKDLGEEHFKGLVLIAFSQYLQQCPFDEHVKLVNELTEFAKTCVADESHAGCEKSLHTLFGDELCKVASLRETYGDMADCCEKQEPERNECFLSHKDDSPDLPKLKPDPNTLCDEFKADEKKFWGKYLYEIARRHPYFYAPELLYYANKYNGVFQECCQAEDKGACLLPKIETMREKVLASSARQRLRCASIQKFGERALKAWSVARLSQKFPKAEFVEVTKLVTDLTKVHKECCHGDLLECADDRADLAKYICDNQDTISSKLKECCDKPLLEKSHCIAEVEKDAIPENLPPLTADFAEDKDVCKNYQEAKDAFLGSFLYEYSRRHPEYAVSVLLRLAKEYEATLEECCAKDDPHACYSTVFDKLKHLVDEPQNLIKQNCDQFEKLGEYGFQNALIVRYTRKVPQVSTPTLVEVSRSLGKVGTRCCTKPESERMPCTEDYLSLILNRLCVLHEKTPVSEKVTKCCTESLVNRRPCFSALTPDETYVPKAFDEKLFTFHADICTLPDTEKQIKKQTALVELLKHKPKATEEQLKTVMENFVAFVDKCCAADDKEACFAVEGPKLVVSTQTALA

Compound | λA, absorption maximum in the Q-band [2] | λF, fluorescence emission maximum [2] | ΦF, fluorescence quantum yield [3] | τF1, fluorescence lifetime (relative amplitude in brackets) [4] | ΦΔ(EtOH) [1] | EC50 [8] | ε, extinction coefficient [2] | τF2, fluorescence lifetime (relative amplitude in brackets) [4] | ΦΔ, quantum yield of singlet oxygen production [9] | Log P [5] | aggregation / monomeric state [10] | EC50 [6] | EC50 [7] | EC50 [12] | also measured
O=C([O-])c1c(Cl)c(Cl)c(Cl)c(Cl)c1-c1c2cc(I)c(=O)c(I)c-2oc2c(I)c([O-])c(I)cc12.[Na+].[Na+] [Rose Bengal] | – | – | – | – | – | – | – | – | – | – | – | – | – | – | ΦΔ of the reference standard [1]: 0.47
C=Cc1c(C)c2cc3nc(cc4[nH]c(cc5nc(cc1[nH]2)C(C)=C5CCC(=O)O)c(CCC(=O)OC)c4C)[C@@]1(C)C3=CC=C(C(=O)OC)[C@H]1C(=O)OC [verteporfin, reference compound] | 690 nm | 696 nm | 0.18 | 6.05 ns | 0.51–0.67 | 36 ± 10 nM | – | – | – | – | – | – | – | – | logP ([5]; n-octanol/PBS buffer): 2.51; EC50 ([6]; Homo sapiens, MCF7, light or radiation study): 33 ± 3 nM; EC50 ([7]; Homo sapiens, SK-MEL-28, light or radiation study): 21 ± 3 nM
C[n+]1cccc(Oc2cc3c(cc2Oc2ccc[n+](C)c2)C2=Nc4c5cc(Oc6ccc[n+](C)c6)c(Oc6ccc[n+](C)c6)cc5c5[n]4[Zn][n]4c(c6cc(Oc7ccc[n+](C)c7)c(Oc7ccc[n+](C)c7)cc6c4=NC4=NC(=N5)c5cc(Oc6ccc[n+](C)c6)c(Oc6ccc[n+](C)c6)cc54)=NC3=N2)c1.[I-].[I-].[I-].[I-].[I-].[I-].[I-].[I-] [C6Zn] | 681 nm | 683 nm | 0.001 | 0.07 (3%) ns | – | – | 41 730 M^–1cm^–1 | 2.84 (97%) ns | 0.02 | –2.59 | did not sufficiently suppress aggregation | 110 ± 30 nM | 150 ± 50 nM | – | EC50 [11]: 58 ± 20 nM
Cc1cc(Cn2cc[n+](C)c2)c(Oc2cc3c(cc2Oc2c(Cn4cc[n+](C)c4)cc(C)cc2Cn2cc[n+](C)c2)C2=Nc4c5ccccc5c5[n]4[Zn][n]4c(c6ccccc6c4=NC3=N2)=NC2=NC(=N5)c3ccccc32)c(Cn2cc[n+](C)c2)c1.[I-].[I-].[I-].[I-] [C3Zn] | 673 nm | 682 nm | 0.19 | – | – | 48 ± 19 nM | 177 190 M^–1cm^–1 | – | 0.53 | –0.84 | monomeric in DMF but are aggregated in PBS | – | 40 ± 4 nM | 21 ± 8 nM | –
[Zn+2].c1ccc2c(c1)-c1nc-2nc2[n-]c(nc3nc([n-]c4nc(n1)-c1ccccc1-4)-c1ccccc1-3)c1ccccc21 [ZnPc, unsubstituted zinc(II) phthalocyanine, reference compound] | – | – | – | – | – | – | – | – | – | – | – | – | – | – | ΦF of the reference standard [13]: 0.32; ΦΔ of the reference standard [1]: 0.56
Cc1cc(Cn2cc[n+](C)c2)c(Oc2c3c(c(C)c(C)[n+]2C)C2=NC3=Nc3c4ccccc4c4[n]3[Zn][n]3c(c5ccccc5c3=N2)=NC2=NC(=N4)c3ccccc32)c(Cn2cc[n+](C)c2)c1.[I-].[I-].[I-] [C1Zn] | 689 nm | 696 nm | 0.15 | – | – | 27 ± 9 nM | 100 240 M^–1cm^–1 | – | 0.66 | 0.53 | monomeric in DMF but are aggregated in PBS | – | 22 ± 3 nM | 35 ± 2 nM | –
protoporhyrin IX [PpIX, reference compound] | 630 nm | 634 nm | 0.12 | – | 0.51–0.67 | – | – | – | – | 1.06 | – | 5700 ± 800 nM | 6200 ± 300 nM | – | EC50 [11]: 5500 ± 600 nM
O=C([O-])c1cc(C(=O)[O-])cc(-c2cc3c(cc2-c2cc(C(=O)[O-])cc(C(=O)[O-])c2)C2=Nc4c5ccccc5c5[n]4[Zn][n]4c(c6ccccc6c4=NC3=N2)=NC2=NC(=N5)c3ccccc32)c1.[Na+].[Na+].[Na+].[Na+] [A2Zn] | 677 nm | 688 nm | 0.02 | 0.23 (16%) ns | – | 410 ± 156 nM | 152 090 M^–1cm^–1 | 2.66 (84%) ns | 0.22 | –2.42 | aggregated in water | – | 700 ± 50 nM | 584 ± 88 nM | Interaction with BSA: disaggregation/monomerization and changes in absorption and fluorescence emission spectra [14]: partial; fold higher photodynamic activity vs symmetrical hydrophilic counterparts ([11]; HeLa, unsymmetrical anionic A1Zn, A2Zn vs A3Zn, A4Zn): 25 and ~21
temoporfin [reference compound] | 651 nm | 656 nm | 0.24 | 9.66 ns | 0.51–0.67 | 45 ± 7 nM | – | – | – | 1.40 | – | 210 ± 74 nM | 103 ± 17 nM | – | –
Cc1cc(Cn2cc[n+](C)c2)c(Oc2cc3c(cc2Oc2c(Cn4cc[n+](C)c4)cc(C)cc2Cn2cc[n+](C)c2)C2=Nc4c5cc(Oc6c(Cn7cc[n+](C)c7)cc(C)cc6Cn6cc[n+](C)c6)c(Oc6c(Cn7cc[n+](C)c7)cc(C)cc6Cn6cc[n+](C)c6)cc5c5[n]4[Zn][n]4c(c6cc(Oc7c(Cn8cc[n+](C)c8)cc(C)cc7Cn7cc[n+](C)c7)c(Oc7c(Cn8cc[n+](C)c8)cc(C)cc7Cn7cc[n+](C)c7)cc6c4=NC4=NC(=N5)c5cc(Oc6c(Cn7cc[n+](C)c7)cc(C)cc6Cn6cc[n+](C)c6)c(Oc6c(Cn7cc[n+](C)c7)cc(C)cc6Cn6cc[n+](C)c6)cc54)=NC3=N2)c(Cn2cc[n+](C)c2)c1.[I-].[I-].[I-].[I-].[I-].[I-].[I-].[I-].[I-].[I-].[I-].[I-].[I-].[I-].[I-].[I-] [C12Zn] | 679 nm | 687 nm | 0.20 | 0.62 (7%) ns | – | 37 ± 6 nM | 244 030 M^–1cm^–1 | 2.23 (93%) ns | 0.48 | –2.08 | – | – | 45 ± 7 nM | 11 ± 3 nM | increase in activity of C12Zn in comparison with C3Zn (fold) ([11]; HeLa cells): 1.3; increase in activity of C12Zn in comparison with C3Zn (fold) ([6]; MCF-7 cells): 2
